According to patent publication US10167262B2, “Herbicidal substituted 3-arylpyrazoles” (FMC CORPORATION, priority 2014, dated 2019):

What was measured:
Assay in all cases: Test C pre-/postemergence greenhouse test, plant response rating 0-100
Type in all cases: in vivo
[1] = test system: galium (catchweed bedstraw, Galium aparine); settings: Galium, post-emergence, Postemergence; for pest or weed control at 31 g/ha: 31 g ai/ha; for pest or weed control at 31 g/ha / pest or weed control at 62 g/ha / pest or weed control at 125 g/ha: read-out: Plant response rating (0 to 100), Galium; for pest or weed control at 62 g/ha: 62 g ai/ha; for pest or weed control at 125 g/ha: 125 g ai/ha
How it was run: (§1)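 After treatment, pots stay in the greenhouse 13–15 days before each species is compared with untreated controls and given a 0–100 visual score. Preemergence seeds are in loam blended with sand; postemergence plants, 1–4 leaves, are in peat-based medium.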

[2] = test system: morningglory (Ipomoea coccinea); settings: Ipomoea, post-emergence, Postemergence; for pest or weed control at 62 g/ha: 62 g ai/ha; for pest or weed control at 62 g/ha / pest or weed control at 125 g/ha: read-out: Plant response rating (0 to 100), Morningglory; for pest or weed control at 125 g/ha: 125 g ai/ha
How it was run: as §1

[3] = test system: pigweed (Amaranthus retroflexus); settings: Amaranthus retroflexus, post-emergence, Postemergence; for pest or weed control at 125 g/ha: 125 g ai/ha
How it was run: as §1

soybean (Glycine max) = settings: Glycine max, post-emergence, Postemergence; for plant injury at 62 g/ha: 62 g ai/ha; for plant injury at 62 g/ha / plant injury at 125 g/ha: read-out: Plant response rating (0 to 100), Soybean; for plant injury at 125 g/ha: 125 g ai/ha
How it was run: as §1

[4] = test system: winter wheat (Triticum aestivum); settings: Triticum aestivum, post-emergence, Postemergence; for plant injury at 62 g/ha: 62 g ai/ha; for plant injury at 62 g/ha / plant injury at 125 g/ha: read-out: Plant response rating (0 to 100), Wheat; for plant injury at 125 g/ha: 125 g ai/ha
How it was run: as §1

[5] = test system: velvetleaf (Abutilon theophrasti); settings: Abutilon theophrasti, post-emergence, Postemergence; for pest or weed control at 62 g/ha: 62 g ai/ha; for pest or weed control at 62 g/ha / pest or weed control at 125 g/ha: read-out: Plant response rating (0 to 100), Velvetleaf; for pest or weed control at 125 g/ha: 125 g ai/ha
How it was run: as §1

[6] = test system: yellow nutsedge (Cyperus esculentus); settings: Cyperus, post-emergence, Postemergence; for pest or weed control at 62 g/ha: 62 g ai/ha; for pest or weed control at 62 g/ha / pest or weed control at 125 g/ha: read-out: Plant response rating (0 to 100), Nutsedge, Yellow; for pest or weed control at 125 g/ha: 125 g ai/ha
How it was run: as §1

[7] = test system: large (Lg) crabgrass (Digitaria sanguinalis); settings: Digitaria sanguinalis, post-emergence, Postemergence; for pest or weed control at 31 g/ha: 31 g ai/ha; for pest or weed control at 31 g/ha / pest or weed control at 62 g/ha / pest or weed control at 125 g/ha: read-out: Plant response rating (0 to 100), Crabgrass, Large; for pest or weed control at 62 g/ha: 62 g ai/ha; for pest or weed control at 125 g/ha: 125 g ai/ha
How it was run: as §1

[8] = test system: johnsongrass (Sorghum halepense); settings: Sorghum halepense, post-emergence, Postemergence; for pest or weed control at 62 g/ha: 62 g ai/ha; for pest or weed control at 62 g/ha / pest or weed control at 125 g/ha: read-out: Plant response rating (0 to 100), Johnsongrass; for pest or weed control at 125 g/ha: 125 g ai/ha
How it was run: as §1

[9] = test system: Italian ryegrass (Lolium multiflorum); settings: Lolium multiflorum, post-emergence, Postemergence; for pest or weed control at 62 g/ha: 62 g ai/ha; for pest or weed control at 62 g/ha / pest or weed control at 125 g/ha: read-out: Plant response rating (0 to 100), Ryegrass, Italian; for pest or weed control at 125 g/ha: 125 g ai/ha
How it was run: as §1

[10] = test system: lambsquarters (Chenopodium album); settings: Chenopodium album, post-emergence, Postemergence; for pest or weed control at 62 g/ha: 62 g ai/ha; for pest or weed control at 62 g/ha / pest or weed control at 125 g/ha: read-out: Plant response rating (0 to 100), Lambsquarters; for pest or weed control at 125 g/ha: 125 g ai/ha
How it was run: as §1

[11] = test system: giant foxtail (Setaria faberii); settings: Setaria faberi, post-emergence, Postemergence; for pest or weed control at 31 g/ha: 31 g ai/ha; for pest or weed control at 31 g/ha / pest or weed control at 62 g/ha / pest or weed control at 125 g/ha: read-out: Plant response rating (0 to 100), Foxtail, Giant; for pest or weed control at 62 g/ha: 62 g ai/ha; for pest or weed control at 125 g/ha: 125 g ai/ha
How it was run: as §1

corn (Zea mays) = settings: Zea mays, post-emergence, Postemergence; for plant injury at 31 g/ha: 31 g ai/ha; for plant injury at 62 g/ha: 62 g ai/ha; for plant injury at 125 g/ha: 125 g ai/ha
How it was run: as §1

[12] = read-out: Plant response rating (0 to 100), Pigweed

## CCn1cc(C(=O)c2ccccc2)c(-c2cc(Cl)cc(Cl)c2)n1 [Compound 31, [3-(3,5-dichlorophenyl)-1-ethyl-1H-pyrazol-4-yl]phenylmethanone]
[1]; 16 g ai/ha
  pest or weed control at 16 g/ha: 0%
[1]
  pest or weed control at 31 g/ha: 0%
  pest or weed control at 62 g/ha: 0%
  pest or weed control at 125 g/ha: 5%
[2]; 16 g ai/ha
  pest or weed control at 16 g/ha: 0%
[2]
  pest or weed control at 62 g/ha: 5%
  pest or weed control at 125 g/ha: 5%
[3]; 16 g ai/ha
  pest or weed control at 16 g/ha: 20%
[3]; [12]
  pest or weed control at 125 g/ha: 75%
Soybean (Glycine max); 16 g ai/ha
  plant injury at 16 g/ha: 0%
Soybean (Glycine max)
  plant injury at 62 g/ha: 0%
  plant injury at 125 g/ha: 5%
[4]; 16 g ai/ha
  plant injury at 16 g/ha: 0%
[4]
  plant injury at 62 g/ha: 0%
  plant injury at 125 g/ha: 0%
[5]; 16 g ai/ha
  pest or weed control at 16 g/ha: 50%
[5]
  pest or weed control at 62 g/ha: 75%
  pest or weed control at 125 g/ha: 80%
[6]; 16 g ai/ha
  pest or weed control at 16 g/ha: 0%
[6]
  pest or weed control at 62 g/ha: 5%
  pest or weed control at 125 g/ha: 5%
[7]; 16 g ai/ha
  pest or weed control at 16 g/ha: 5%
[7]
  pest or weed control at 31 g/ha: 5%
  pest or weed control at 62 g/ha: 5%
  pest or weed control at 125 g/ha: 5%
[8]; 16 g ai/ha
  pest or weed control at 16 g/ha: 0%
[8]
  pest or weed control at 62 g/ha: 5%
  pest or weed control at 125 g/ha: 10%
[9]; 16 g ai/ha
  pest or weed control at 16 g/ha: 0%
[9]
  pest or weed control at 62 g/ha: 0%
  pest or weed control at 125 g/ha: 0%
[10]; 16 g ai/ha
  pest or weed control at 16 g/ha: 25%
[10]
  pest or weed control at 62 g/ha: 55%
  pest or weed control at 125 g/ha: 80%
[11]; 16 g ai/ha
  pest or weed control at 16 g/ha: 5%
[11]
  pest or weed control at 31 g/ha: 5%
  pest or weed control at 62 g/ha: 5%
  pest or weed control at 125 g/ha: 5%
Corn (Zea mays); 16 g ai/ha
  Corn plant response rating (crop injury, 0 = no effect, 100 = complete kill) at 16 g/ha: 0%
Corn (Zea mays)
  plant injury at 31 g/ha: 0%
  plant injury at 62 g/ha: 0%
  plant injury at 125 g/ha: 0%

## CCCn1cc(C(=O)c2ccccc2)c(-c2cc(Cl)cc(Cl)c2)n1 [Compound 61, [3-(3,5-dichlorophenyl)-1-propyl-1H-pyrazol-4-yl]phenylmethanone]
[1]
  pest or weed control at 31 g/ha: 0%
  pest or weed control at 62 g/ha: 0%
  pest or weed control at 125 g/ha: 0%
[1]; 250 g ai/ha, scale 0 to 100
  pest or weed control at 250 g/ha: 0%
[2]
  pest or weed control at 62 g/ha: 0%
  pest or weed control at 125 g/ha: 0%
[2]; 250 g ai/ha, scale 0 to 100
  pest or weed control at 250 g/ha: 0%
[3]; 62 g ai/ha, read-out: Plant response rating (0 to 100), Pigweed
  pest or weed control at 62 g/ha: 100%
[3]; [12]
  pest or weed control at 125 g/ha: 100%
[3]; 250 g ai/ha, scale 0 to 100
  pest or weed control at 250 g/ha: 100%
Soybean (Glycine max)
  plant injury at 62 g/ha: 0%
  plant injury at 125 g/ha: 10%
Soybean (Glycine max); 250 g ai/ha, scale 0 to 100
  plant injury at 250 g/ha: 15%
[4]
  plant injury at 62 g/ha: 0%
  plant injury at 125 g/ha: 0%
[4]; 250 g ai/ha, scale 0 to 100
  plant injury at 250 g/ha: 0%
[5]
  pest or weed control at 62 g/ha: 40%
  pest or weed control at 125 g/ha: 75%
[5]; 250 g ai/ha, scale 0 to 100
  pest or weed control at 250 g/ha: 75%
[6]
  pest or weed control at 62 g/ha: 0%
  pest or weed control at 125 g/ha: 5%
[6]; 250 g ai/ha, scale 0 to 100
  pest or weed control at 250 g/ha: 5%
[7]
  pest or weed control at 31 g/ha: 5%
  pest or weed control at 62 g/ha: 5%
  pest or weed control at 125 g/ha: 5%
[7]; 250 g ai/ha, scale 0 to 100
  pest or weed control at 250 g/ha: 5%
[8]
  pest or weed control at 62 g/ha: 10%
  pest or weed control at 125 g/ha: 10%
[8]; 250 g ai/ha, scale 0 to 100
  pest or weed control at 250 g/ha: 10%
[9]
  pest or weed control at 62 g/ha: 0%
  pest or weed control at 125 g/ha: 0%
[9]; 250 g ai/ha, scale 0 to 100
  pest or weed control at 250 g/ha: 0%
[10]
  pest or weed control at 62 g/ha: 40%
  pest or weed control at 125 g/ha: 55%
[10]; 250 g ai/ha, scale 0 to 100
  pest or weed control at 250 g/ha: 55%
[11]
  pest or weed control at 31 g/ha: 5%
  pest or weed control at 62 g/ha: 5%
  pest or weed control at 125 g/ha: 5%
[11]; 250 g ai/ha, scale 0 to 100
  pest or weed control at 250 g/ha: 10%
Corn (Zea mays)
  plant injury at 31 g/ha: 5%
  plant injury at 62 g/ha: 5%
  plant injury at 125 g/ha: 5%
Corn (Zea mays); 250 g ai/ha, scale 0 to 100
  Corn plant response rating (crop injury, 0 = no effect, 100 = complete kill) at 250 g/ha: 5%
